Test results from the NIST ThermoML archive (doi:10.1021/je060457+).
Numbers after ± are expanded uncertainties.

Assay: refractive index (Na D-line) (dimensionless); xn = mol fraction of the nth substance listed
Conditions: 101 kPa, Liquid, Standard Abbe refractometry

CNCCO [2-(methylamino)ethanol] + O
refractive index
Conditions	293.15 K	298.15 K	303.15 K	308.15 K	313.15 K	318.15 K	323.15 K
x1 = 0.0493	1.3559 ± 0.0004	1.3552 ± 0.0004	1.3544 ± 0.0004	1.3536 ± 0.0005	1.3527 ± 0.0005	1.3517 ± 0.0005	1.3507 ± 0.0005
x1 = 0.0657	1.3625 ± 0.0004	1.3617 ± 0.0004	1.3608 ± 0.0005	1.3599 ± 0.0005	1.3589 ± 0.0005	1.3579 ± 0.0005	1.3568 ± 0.0005
x1 = 0.1054	1.3767 ± 0.0004	1.3754 ± 0.0005	1.3744 ± 0.0005	1.3732 ± 0.0005	1.372 ± 0.0005	1.3708 ± 0.0005	1.3696 ± 0.0007
x1 = 0.1987	1.3997 ± 0.0005	1.3983 ± 0.0005	1.3967 ± 0.0005	1.3956 ± 0.0005	1.394 ± 0.0006	1.3921 ± 0.0005	1.3907 ± 0.0009
x1 = 0.301	1.4151 ± 0.0004	1.4137 ± 0.0005	1.412 ± 0.0005	1.4105 ± 0.0005	1.4091 ± 0.0005	1.4074 ± 0.0006	1.4055 ± 0.0008
x1 = 0.3834	1.4235 ± 0.0004	1.4218 ± 0.0006	1.4201 ± 0.0005	1.4186 ± 0.0005	1.417 ± 0.0006	1.4151 ± 0.0006	1.4134 ± 0.0008
x1 = 0.5041	1.4288 ± 0.0005	1.4272 ± 0.0006	1.4253 ± 0.0006	1.4239 ± 0.0006	1.4221 ± 0.0006	1.4204 ± 0.0006	1.4187 ± 0.0006
x1 = 0.6	1.4324 ± 0.0005	1.4306 ± 0.0006	1.4289 ± 0.0006	1.4272 ± 0.0006	1.4254 ± 0.0006	1.4238 ± 0.0006	1.422 ± 0.0007
x1 = 0.6974	1.4347 ± 0.0006	1.4329 ± 0.0006	1.4311 ± 0.0006	1.4294 ± 0.0006	1.4275 ± 0.0006	1.4257 ± 0.0006	1.4239 ± 0.0006
x1 = 0.8008	1.4366 ± 0.0006	1.4348 ± 0.0006	1.433 ± 0.0006	1.4313 ± 0.0006	1.4293 ± 0.0006	1.4274 ± 0.0006	1.4257 ± 0.0006
x1 = 0.9031	1.4381 ± 0.0006	1.4363 ± 0.0006	1.4344 ± 0.0006	1.4328 ± 0.0006	1.4306 ± 0.0007	1.4288 ± 0.0006	1.4268 ± 0.0007
x1 = 1	1.4393 ± 0.0006	1.4375 ± 0.0006	1.4356 ± 0.0006	1.4339 ± 0.0007	1.4318 ± 0.0007	1.4298 ± 0.0007	1.4278 ± 0.0007
